Measured values taken from PubChem BioAssay (NCI).
“And” between values parts separate entries of the source, which are not always exact repeats. Equal values may be shown once.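 Cells were grown in 96-well plates and exposed to each compound for 48 hours at five concentrations; endpoints were interpolated linearly between bracketing concentrations, or set to the highest concentration if not reached. At the GI50, growth is halved. At the TGI there is no net growth.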

How the values were obtained:
Test in all cases: inhibition of tumour cell growth, NCI panel, 48 h
A498 renal = system: A498 renal
MDA-MB-231 breast = system: MDA-MB-231 breast
A549 NSCLC = system: A549 NSCLC
SK-OV-3 ovarian = system: SK-OV-3 ovarian
SNB-19 CNS = system: SNB-19 CNS
RXF 393 renal = system: RXF 393 renal
UACC-257 melanoma = system: UACC-257 melanoma
NCI/ADR-RES ovarian = system: NCI/ADR-RES ovarian
OVCAR-8 ovarian = system: OVCAR-8 ovarian
OVCAR-5 ovarian = system: OVCAR-5 ovarian

Row | Compound | GI50 (A498 renal) | TGI (A498 renal) | GI50 (MDA-MB-231 breast) | TGI (MDA-MB-231 breast) | GI50 (A549 NSCLC) | TGI (A549 NSCLC) | GI50 (SK-OV-3 ovarian) | TGI (SK-OV-3 ovarian) | GI50 (SNB-19 CNS) | TGI (SNB-19 CNS) | GI50 (RXF 393 renal) | TGI (RXF 393 renal) | GI50 (UACC-257 melanoma) | TGI (UACC-257 melanoma) | GI50 (NCI/ADR-RES ovarian) | TGI (NCI/ADR-RES ovarian) | GI50 (OVCAR-8 ovarian) | TGI (OVCAR-8 ovarian) | GI50 (OVCAR-5 ovarian) | TGI (OVCAR-5 ovarian)
1 | CNc1cc(-c2cccc(OC(F)(F)F)c2)nc2ccc(N3CCCC3)cc12 | 1.17 µM and 1.61 µM and 1.66 µM | 2.41 µM and 3 µM and 3.08 µM | 1.72 µM and 1.7 µM and 1.46 µM | 3.23 µM and 3.14 µM and 2.95 µM | 1.79 µM and 1.66 µM and 1.75 µM | 3.26 µM and 3.03 µM and 3.27 µM | 1.66 µM and 1.67 µM and 1.74 µM | 3.04 µM and 3.03 µM and 3.14 µM | 1.9 µM and 1.81 µM and 1.88 µM | 3.57 µM and 3.22 µM and 3.36 µM | 1.8 µM and 1.81 µM and 1.51 µM | 3.27 µM and 3.28 µM and 2.91 µM | 1.89 µM and 1.77 µM and 1.86 µM | 3.37 µM and 3.16 µM and 3.34 µM | 1.78 µM and 1.89 µM and 1.6 µM | 3.87 µM and 3.79 µM and 3.19 µM | 1.8 µM and 1.81 µM and 1.82 µM | 3.5 µM and 3.39 µM and 3.55 µM | 1.68 µM and 2.04 µM and 1.87 µM | 3.18 µM and 3.73 µM and 3.34 µM
2 | Cc1cc(N(CCNc2ccnc3cc(Cl)ccc23)Cc2ccc3c(c2)OCO3)nc(N2CCCC2)n1 | 1.61 µM | 3.94 µM | 1.28 µM | 3.27 µM | 1.67 µM | 4.96 µM | 2.63 µM | 8.15 µM | 2.53 µM | 11.3 µM | 1.28 µM | 2.74 µM | 1.64 µM | 3.24 µM | 1.79 µM | 5.56 µM | 1.91 µM | 5.01 µM | 1.87 µM | 4.95 µM
3 | Cc1c(-c2ccccn2)ccc2ccccc12 |  | > 100 µM |  | > 100 µM |  | > 100 µM |  | > 100 µM |  | > 100 µM |  | 93.2 µM |  | > 100 µM |  | > 100 µM |  | > 100 µM |  | > 100 µM
4 | COc1cc(C2NC(=O)C(C#N)=C(Nc3cccc(C)c3)S2)ccc1O (stereo not given) | > 100 µM | > 100 µM | > 100 µM | > 100 µM | > 100 µM | > 100 µM | > 100 µM | > 100 µM | > 100 µM | > 100 µM | > 100 µM | > 100 µM | > 100 µM | > 100 µM | > 100 µM | > 100 µM | > 100 µM | > 100 µM | > 100 µM | > 100 µM
5 | COc1cc(C(=O)n2nc(N)c3c(C)cc(C)nc32)cc(OC)c1OC | > 20.8 µM | > 100 µM | > 100 µM | > 100 µM | 41.5 µM | > 100 µM | > 82.4 µM | > 100 µM | > 100 µM | > 100 µM | 25.3 µM | > 100 µM | > 100 µM | > 100 µM | 16.3 µM | > 100 µM | > 100 µM | > 100 µM | > 100 µM | > 100 µM
